From patent US20110071199A1, “Thiophenyl Sulfonamides for the Treatment of Alzheimer's Disease” (Bristol-Myers Squibb Company, priority 2009, published 2011)
pIC50: −log10 of the molar value.

Assays:
[1] = system: Aβ formation in H4 APP751 SWE clone 8.20 cells (H4 neuroglioma cell line stably expressing the Swedish mutant of APP751); experiment: Inhibition of Aβ formation in cultured cells; type: cell-based; settings: for pIC50: H4 APP751 SWE clone 8.20 cells, 19 hours incubation, Aβ40 or Aβ42 not specified
Description: Compounds were assayed for Aβ40 or Aβ42 inhibition in cells using H4 APP751 SWE clone 8.20, developed at Bristol-Myers Squibb, an H4 neuroglioma cell line stably expressing the Swedish mutant of APP751. Cells were maintained in log phase through twice weekly passage at a 1:20 dilution. For IC50 determinations, 30 μL cells (1.5×10^4 cells/well) in DMEM media containing 0.0125% BSA (Sigma A8412) were plated directly into 384-well compound plates (Costar 3709) containing 0.1 μL serially diluted compound in DMSO. Following incubation for 19 hours in 5% CO2 at 37° C., plates were briefly centrifuged (1000 rpm, 5 min). A 10 μL aliquot from each well was transferred to a second assay plate (Costar 3709) for Aβ40 measurements. Antibody cocktails were freshly prepared by dilution into 40 mM Tris-HCl (pH 7.4) with 0.2% BSA and added to assay plates. For Aβ42 measurements, antibodies specific for the Aβ42 neoepitope (565, developed at Bristol-Myers Squibb; conjugated to the Wallac reagent (Perkin Elmer)) and the N-terminal sequence of Aβ peptide (26D6, developed at SIBIA/Bristol-Myers Squibb; conjugated to APC (Perkin Elmer)) were mixed and 20 […] of the mixture was added to each well of the incubated cell plate yielding a final concentration of 0.8 ng/well 565 and 75 ng/well 26D6. For the Aβ40 measurements, antibodies specific for the Aβ40 neoepitope (TSD, developed at Bristol-Myers Squibb; conjugated to the Wallac reagent (Perkin Elmer)) and 26D6 as described above were mixed and 20 μL of the mixture was added to the 10 μL aliquots which had been removed previously from the cell plate yielding a final concentration of 1.6 ng/well TSD and 17.5 ng/well 26D6. Assay plates containing antibodies were sealed with aluminum foil and incubated overnight at 4° C. Signal was determined using a Viewlux counter (Perkin Elmer) and IC50 values determined using curve fitting in CurveMaster (Excel Fit based).

[2] = system: brain Aβ40; experiment: Acute rat study, brain Abeta40 assay (252-TSD ELISA); type: in vivo; settings: female Sprague-Dawley rats, single dose 10 mg/kg, oral gavage
Description: (§1) Aβ species from animals were measured using sandwich ELISA assays. A brief discussion of these assays is included here since the details of the epitopes for the individual antibodies determines the Aβ species that are detected. Mouse and rat Aβ share a common Aβ sequence that differs from human Aβ. As a result of these sequence differences, antibodies that recognize the N-terminal region of human Aβ, such as 26D6, bind weakly to rodent Aβ. Likewise, antibodies that bind tightly to rodent Aβ, such as 252, bind weakly to human Aβ. Two assays were developed for measuring rodent Aβ40: 252-TSD and 4G8-TSD. The TSD-4G8 assay can measure not only Aβ40, but other BACE-γ-secretase cleavage products (Aβ11-40) and α-secretase-γ-secretase cleavage products (P3).
(§2) Dosing solutions were made once at the start of the study. Heating at 56° C. and sonication were used to solubilize compound in the dosing solution. All procedures were done in concordance with ACUC guidelines. Terminal blood samples were obtained by cardiac puncture after CO2 euthanasia and collected in EDTA tubes. Plasma was obtained after centrifugation. […]
Rat brain (half a hemisphere) was homogenized using a polytron at 4 mL/g in PBS, pH 7.8, 2% CHAPS, complete protease inhibitors (Roche). […] The bound 252-HRP antibody was detected using Pierce Supersignal Pico Chemiluminescent substrate for 10 minutes and quantified a Packard TopCount. […]

[3] = system: plasma Aβ40; experiment: Acute rat study, plasma Abeta40 assay (4G8-TSD ELISA); type: in vivo; settings: female Sprague-Dawley rats, single dose 10 mg/kg, oral gavage
Description: as §1, §2
Plates were coated with TSD antibody and washed as for the brain Aβ40 assay. […] Samples were detected using 4G8-biotin (Signet) diluted 1:8000 in PBS, 0.05% Tween, 0.1% BSA for 1 hour. […] Detection and quantification were as for brain Aβ40 assays. […]

SMILES	pIC50 [1]	also measured
NC(=O)[C@@H](CCC(F)(F)F)N(Cc1ccc(Br)c(F)c1)S(=O)(=O)c1ccc(Cl)s1 [Example 12, (R)-2-(N-(4-bromo-3-fluorobenzyl)-5-chlorothiophene-2-sulfonamido)-5,5,5-trifluoropentanamide]	8.53	–
NC(=O)[C@@H](CC1CC1)N(Cc1ccc(Br)cc1)S(=O)(=O)c1ccc(Cl)s1 [Example 1, (R)-2-(N-(4-bromobenzyl)-5-chlorothiophene-2-sulfonamido)-3-cyclopropylpropanamide]	9.00	–
NC(=O)[C@@H](CCC(F)(F)F)N(Cc1ccc(-c2ncco2)cc1F)S(=O)(=O)c1ccc(Cl)s1 [Example 9, (R)-2-(5-chloro-N-(2-fluoro-4-(oxazol-2-yl)benzyl)thiophene-2-sulfonamido)-5,5,5-trifluoropentanamide]	9.21	–
NC(=O)[C@@H](CCC(F)(F)F)N(Cc1ccc(-c2ncon2)cc1F)S(=O)(=O)c1ccc(Cl)s1 [Example 7, (R)-2-(5-chloro-N-(2-fluoro-4-(1,2,4-oxadiazol-3-yl)benzyl)thiophene-2-sulfonamido)-5,5,5-trifluoropentanamide]	9.54	Aβ40 versus Aβ42 inhibition in cultured cells ([1]; cultured cells): similarly inhibited; brain Aβ40, level as % of vehicle control [2]: 41 % of vehicle control; plasma Aβ40, level as % of vehicle control [3]: 47 % of vehicle control
NC(=O)[C@@H](CCC(F)(F)F)N(Cc1ccc(Br)cc1F)S(=O)(=O)c1ccc(Cl)s1 [Example 11, (R)-2-(N-(4-bromo-2-fluorobenzyl)-5-chlorothiophene-2-sulfonamido)-5,5,5-trifluoropentanamide]	8.97	–
NC(=O)[C@@H](CC1CC1)N(Cc1ccc(Br)cc1F)S(=O)(=O)c1ccc(Cl)s1 [Example 2, (R)-2-(N-(4-bromo-2-fluorobenzyl)-5-chlorothiophene-2-sulfonamido)-3-cyclopropylpropanamide]	9.28	–
NC(=O)[C@@H](CCC(F)(F)F)N(Cc1ccc(Br)cc1)S(=O)(=O)c1ccc(Cl)s1 [Example 10, (R)-2-(N-(4-bromobenzyl)-5-chlorothiophene-2-sulfonamido)-5,5,5-trifluoropentanamnide]	8.60	–
NC(=O)[C@@H](CC1CC1)N(Cc1cc(F)c(Cl)cc1F)S(=O)(=O)c1ccc(Cl)s1 [Example 6, (R)-2-(5-chloro-N-(4-chloro-2,5-difluorobenzyl)thiaphene-2-sulfonamido)-3-cyclopropylpropanamide]	8.83	–
NC(=O)[C@@H](CC1CC1)N(Cc1ccc(Br)c(F)c1)S(=O)(=O)c1ccc(Cl)s1 [Example 3, (R)-2-(N-(4-bromo-3-fluorobenzyl)-5-chlorothiophene-2-sulfonamido)-3-cyclopropylpropanamide]	9.12	–
NC(=O)[C@@H](CC1CC1)N(Cc1ccc(-c2ncon2)cc1)S(=O)(=O)c1ccc(Cl)s1 [Example 5, (R)-2-(N-(4-(1,2,4-oxadiazol-3-yl)benzyl)-5-chlorothiophene-2-sulfonamido)-3-cyclopropylpropanamide]	9.29	–
NC(=O)[C@@H](CC1CC1)N(Cc1cc(F)c(Br)cc1F)S(=O)(=O)c1ccc(Cl)s1 [Example 4, (R)-2-(N-(4-bromo-2,5-difluorobenzyl)-5-chlorothiophene-2-sulfonamido)-3-cyclopropylpropanamide]	9.09	–
